Test results taken from patent EP4793275A1, “AT2R ANTAGONIST AND USE THEREOF” (Hubei Bio-Pharmaceutical Industrial Technological Institute …, priority 2023, dated 2025).

Columns and labels:
AT2R = biological target: T1, AT2R (Homo sapiens, UniProt P50052); assay: Binding assay of compounds to AT2R (Tag-lite HTRF ligand binding kit); conditions: labeled cells, Tag-lite red fluorescent labeled ligand, 1 hour at room temperature
T1 construct: purchased Cisbio C1TT1AT2
T1 sequence (P50052 1-363): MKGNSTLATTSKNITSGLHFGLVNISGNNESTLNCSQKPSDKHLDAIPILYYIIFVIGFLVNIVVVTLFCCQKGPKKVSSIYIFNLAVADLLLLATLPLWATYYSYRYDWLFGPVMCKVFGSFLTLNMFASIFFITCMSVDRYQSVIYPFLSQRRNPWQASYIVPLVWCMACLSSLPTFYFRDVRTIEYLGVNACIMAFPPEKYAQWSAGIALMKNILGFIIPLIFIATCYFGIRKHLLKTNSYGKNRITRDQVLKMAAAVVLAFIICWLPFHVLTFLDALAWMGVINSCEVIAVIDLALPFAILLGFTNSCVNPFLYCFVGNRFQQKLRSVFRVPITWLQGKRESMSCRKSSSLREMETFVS
Protocol: The assay was performed in accordance with the manufacturer instructions of Angiotensin AT2 Receptor Ligand Binding Assay Kit (#C1TT1AT2, Cisbio). First, a 10 mM compound stock solution was diluted in a gradient at a 5× dilution ratio (including 10 concentrations, each with two replicates). 160 nL of compounds at different concentrations was added to a 384-well plate. 40 µL of 1× TLB was added to each well, and the mixture was shaken at room temperature for 15 minutes. A 15 mL centrifuge tube added with 5 mL of 1×TLB was prepared in advance. The frozen labeled cells were thawed in a water bath at 37°C (for 1 to 2 minutes), and the thawed cells were quickly transferred to the above 15 mL centrifuge tube. The mixture was mixed well and centrifuged at 1,000 g at room temperature for 5 minutes. The supernatant was removed, and the cells were resuspended by adding 2.7 mL 1× TLB. A new 384-well plate was taken, and 10 µL of mixed cells were added into the corresponding wells according to the assay design. 5 µL of 4× compound solution and 5 µL of 4× Tag-lite red fluorescent labeled ligand were added to each well. After incubation at room temperature for 1 hour, data was read using EnVision with an HTRF mode. The excitation light intensities at 665nM and 615nM in each well were read respectively, and the ratio was calculated (Ratio=A665nM/B615nM). The IC50 value was calculated by means of GraphPad Prism8 software, where X represents logarithmic value of compound concentration; and Y represents ratio of A665nM/B615nM. [Table 1] Binding activity of compounds to AT2R

hERG potassium channel = biological target: T2, hERG potassium channel (Homo sapiens, UniProt Q12809); assay: Effects on hERG channel currents by manual patch-clamp; type: cell-based; conditions: HEK-293 cell line stably expressing hERG potassium channel, tail current, room temperature; read-out: IC50 (inhibitory effects on hERG)
T2 construct: host or cells: HEK-293
T2 sequence (Q12809 whole entry): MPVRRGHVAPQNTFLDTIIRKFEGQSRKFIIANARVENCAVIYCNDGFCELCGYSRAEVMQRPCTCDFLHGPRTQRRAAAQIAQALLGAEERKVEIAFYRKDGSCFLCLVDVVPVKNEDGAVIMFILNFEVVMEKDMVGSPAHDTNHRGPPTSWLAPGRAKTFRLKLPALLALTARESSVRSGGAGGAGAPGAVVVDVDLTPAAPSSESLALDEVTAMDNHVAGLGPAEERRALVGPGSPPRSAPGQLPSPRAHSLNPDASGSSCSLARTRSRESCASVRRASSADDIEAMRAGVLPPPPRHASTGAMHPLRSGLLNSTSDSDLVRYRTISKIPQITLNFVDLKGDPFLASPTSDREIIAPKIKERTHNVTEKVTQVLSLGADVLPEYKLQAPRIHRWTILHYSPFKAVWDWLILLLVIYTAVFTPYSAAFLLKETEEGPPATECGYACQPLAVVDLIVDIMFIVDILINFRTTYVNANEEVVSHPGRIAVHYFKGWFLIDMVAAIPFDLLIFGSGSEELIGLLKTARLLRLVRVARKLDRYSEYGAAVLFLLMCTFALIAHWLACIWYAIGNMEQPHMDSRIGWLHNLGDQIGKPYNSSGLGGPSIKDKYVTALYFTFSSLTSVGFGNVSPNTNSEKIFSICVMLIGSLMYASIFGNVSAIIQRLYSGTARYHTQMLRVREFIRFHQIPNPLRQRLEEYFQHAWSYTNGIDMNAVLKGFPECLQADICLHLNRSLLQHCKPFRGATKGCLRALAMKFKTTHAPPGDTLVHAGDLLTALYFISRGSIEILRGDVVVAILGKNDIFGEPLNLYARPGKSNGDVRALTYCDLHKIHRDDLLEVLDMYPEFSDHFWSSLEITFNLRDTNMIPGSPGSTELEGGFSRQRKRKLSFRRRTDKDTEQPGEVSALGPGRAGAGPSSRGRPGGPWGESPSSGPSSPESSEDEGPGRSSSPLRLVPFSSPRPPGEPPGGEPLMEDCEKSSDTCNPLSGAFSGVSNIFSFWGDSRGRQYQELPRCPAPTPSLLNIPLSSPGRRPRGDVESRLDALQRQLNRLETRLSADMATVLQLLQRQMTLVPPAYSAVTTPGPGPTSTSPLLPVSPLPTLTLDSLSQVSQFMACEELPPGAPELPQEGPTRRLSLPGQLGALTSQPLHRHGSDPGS
Protocol: A manual patch-clamp assay was conducted using an HEK-293 cell line stably expressing an hERG potassium channel. hERG potassium channel cells were purchased from Creacell Co., Ltd. (catalog No.: A-0320). Final concentrations of test compounds were freshly prepared on the day of the assay, and then the test compounds were dissolved in an extracellular solution. The extracellular solution (mM) was: […], 3.5 mM KCl, 1 mM MgCl2·6H2O, 2 mM CaCl2·2H2O, 10 mM D-Glucose, 10 mM HEPES, 1.25 mM NaH2PO4·2H2O; pH 7.4 (titrated with NaOH). An intracellular solution (mM) was: 20 mM KCl, 115 mM K-Aspartic, 1 mM MgCl2·6H2O, 5 mM EGTA, 10 mM HEPES, 2 mM Na2-ATP; pH 7.4 (titrated with KOH).
Electrophysiological Assay: After whole-cell patch-clamp formation, the cell membrane potential was clamped at -80 mV. The holding potential was depolarized to -50 mV from -80 mV and maintained for 0.5 seconds (for leak current detection), then stepped to 30 mV for 2.5 seconds, and then rapidly repolarized back to -50 mV for 4 seconds to elicit a tail current of the hERG channel. Data was collected repeatedly every 10 seconds to observe the effects of the drug on hERG tail current (Peak tail currentcompound). A stimulation at -50 mV for 0.5 seconds was used for the leak current detection. Drug administration was initiated after the hERG current recorded in the whole-cell configuration stabilized. After each drug concentration was applied for 5 minutes (or until the current stabilized), the next concentration was tested. One or more concentrations were tested for each test compound. A current detected in each cell in a compound-free extracellular solution (Peak tail currentControl) served as an internal control for the corresponding cell. […]
Data Analysis: The inhibition rate corresponding to each drug concentration was calculated (1-(Peak tail currentcompound/Peak tail currentControl)), and the concentration-response curves were fitted using nonlinear regression in GraphPad Prism software. The IC50 value of each compound was calculated using the following equation: Y=1/(1+10^((LogIC50-X)×HillSlope)). […]

[1] = Pharmacokinetic test in canines; type: in vivo; conditions: dog; male Beagle canines, oral gavage, 5 mg/kg, plasma
Protocol: For the pharmacokinetic test of canines, 3 male Beagle canines (10 kg to 12 kg) were employed and fasted overnight. The canines were orally administered a dose of 5 mg/kg by gavage. Blood was collected before the administration, and at 5 minutes, 15 minutes, 30 minutes, 1 hour, 2 hours, 4 hours, 6 hours, 8 hours, and 24 hours after the administration. The blood samples were centrifuged at 6,000 g and at 2°C to 8°C for 3 minutes, and plasma was collected and stored at -20°C. The plasma at each time point was taken and mixed with 10 volumes of a 50% methanol in acetonitrile solution containing an internal standard. The mixture was vortexed for 5 minutes, and centrifuged at 4,000 rpm and at 4°C for 5 minutes. The supernatant was collected and mixed with 1 volume of water. An appropriate amount of the mixture was taken for LC-MS/MS analysis. The main pharmacokinetic parameters were analyzed by a non-compartmental model using WinNonlin 7.0 software. [Table 3] Results of Pharmacokinetic Test in Canines

[2] = Pharmacokinetic test in rats; type: in vivo; conditions: rat; male SD rats, oral administration by gavage, 10 mg/kg, plasma
Protocol: For the pharmacokinetic test of rats, 3 male SD rats (180 g to 240 g) were employed and fasted overnight. The rats were orally administered a dose of 10 mg/kg by gavage. Blood was collected before the administration, and at 15 minutes, 30 minutes, 1 hour, 2 hours, 4 hours, 6 hours, 8 hours, and 24 hours after the administration. The blood samples were centrifuged at 8,000 rpm and at 4°C for 6 minutes, and plasma was collected and stored at -20°C. The plasma at each time point was taken and mixed with 3 to 5 volumes of an acetonitrile solution containing an internal standard. The mixture was vortexed for 1 minute, and centrifuged at 13,000 rpm and at 4°C for 10 minutes. The supernatant was collected and mixed with 3 volumes of water. An appropriate amount of the mixture was taken for LC-MS/MS analysis. The main pharmacokinetic parameters were analyzed by a non-compartmental model using WinNonlin 7.0 software. [Table 2] Results of Pharmacokinetic Test in Rats

Compound	IC50 (AT2R) [nM]	IC50 (hERG potassium channel) [nM]	AUC(0-t) [1] [ng·h/mL]	Cmax [1] [ng/mL]	AUC(0-t) [2] [ng·h/mL]	Cmax [2] [ng/mL]
CC(C)Cc1cc(OC(F)(F)F)c(-c2nn[nH]n2)c(N2CCN(Cc3cccnn3)[C@@H](C)C2)c1 [Compound I-6, (S)-3-((4-(5-isobutyl-2-(2H-tetrazol-5-yl)-3-(trifluoromethoxy)phenyl)-2-methylpiperazin-1-yl)methyl)pyridazine]	3.6					
Cc1nnc(CN2CCN(c3cc(CC(C)C)cc(C(F)F)c3-c3nn[nH]n3)C[C@@H]2C)s1 [Compound I-7, (2S)-4-(3-(difluoromethyl)-2-(3H-1,2,3,4-tetrazol-5-yl)-5-isobutylphenyl)-2-methyl-1-((5-methyl-1,3,4-thiadiazol-2-yl)methyl)piperazine]	8					
CC(C)Cc1cc(OC(F)F)c(-c2nn[nH]n2)c(N2CCN(Cc3cccnn3)[C@@H](C)C2)c1 [Compound I-5, (S)-3-((4-(3-(difluoromethoxy)-5-isobutyl-2-(2H-tetrazol-5-yl)phenyl)-2-methylpiperazin-1-yl)methyl)pyridazine]	2.4	22800	2290	1320		
Cc1nnc(CN2CCN(c3cc(CC(C)C)cc(OC(F)F)c3-c3nn[nH]n3)C[C@@H]2C)s1 [Compound I-8, (2S)-4-(3-((difluoromethyl)oxy)-2-(3H-1,2,3,4-tetrazol-5-yl)-5-isobutylphenyl)-2-methyl-1-((5-methyl-1,3,4-thiadiazol-2-yl)methyl) piperazine]	2.5					
CC(C)Cc1cc(F)c(-c2nn[nH]n2)c(N2CCN(Cc3cccnn3)[C@@H](C)C2)c1 [Control Compound I, reference compound]	12	2800	1300	850	10000	3240
CC(C)Cc1cc(C(F)F)c(-c2nn[nH]n2)c(N2CCN(Cc3cccnn3)[C@@H](C)C2)c1 [Compound I-4, (S)-3-((4-(3-(difluoromethyl)-5-isobutyl-2-(2H-tetrazol-5-yl)phenyl)-2-methylpiperazin-1-yl)methyl)pyridazine]	4.1	> 30000			14100	4380
